Source: PMC8253976, “Extracellular loops of the serotonin transporter act as a selectivity filter for drug binding” (The Journal of Biological Chemistry, 2021)
Like-named read-outs stand apart in the source and are kept apart here.

Experiments:
SERT [1] = molecular target: T1, SERT (Homo sapiens, UniProt P31645); test: [^3H]imipramine binding to membranes harboring GFP-tagged SERT; parameters: expressed in transfected cells; membrane preparation; details: in the presence of 8B6 scFv, 15B8 Fab, or antiSERT-EL4 antibody; data not shown
SERT [2] = molecular target: T1, SERT; test: Electrophysiological measurement of methylphenidate binding kinetics to SERT (peak current inhibition and recovery); type: cell-based; parameters: expressed in transfected cells; details: for koff: peak current recovery after washout, read-out: dissociation rate koff from SERT; for association rate constant kon for binding to SERT / kon: y-intercept constrained to koff; for kon: read-out: association rate constant kon for binding to SERT
Protocol: Accordingly, we explored the hypothesis that restricting the flexibility of extracellular loops may increase the affinity of methylphenidate. […] We therefore resorted to an electrophysiological approach, which relies on the substrate-induced peak current through SERT for determining the occupancy of the binding site by methylphenidate. […] The recordings were done in the presence of high internal Na^+ (152 mM) because a high internal Na^+ concentration eliminates the steady-state current component ([5]). The isolated peak current can be quantified with high precision ([5]). The association rate of methylphenidate in the absence (Fig. 9A) and presence (Fig. 9B) of 15B8 Fab was measured by applying 5-HT (30 μM) for 3 s to obtain the reference current. Cells were subsequently exposed to methylphenidate for time intervals varying between 0.2, 0.5, 1, 2, 5, and 10 s prior to eliciting a current by fresh superfusion with 5-HT. This allowed for monitoring the onset of the methylphenidate-induced inhibition of the peak current.
Peak currents were isolated (i.e., the steady-state current was suppressed) by a high concentration of Na^+ (152 mM) in the internal solution in the patch pipet. Shown is the compilation of representative peak current traces from a single cell. […] The dashed lines were drawn by fitting the decline in peak current amplitude to an equation for a monoexponential decay to a residual activity. C and D, the experiments were carried out as outlined in panels A and B with 10, 30, 100, and 300 μM methylphenidate (MPH) in the absence (C) and presence of 300 nM 15B8 Fab 8 (D). The peak current reduction was normalized by dividing test currents by the reference current and plotted as a function of time. Data are means ± SD from three to seven independent recordings for each concentration of methylphenidate. […] Then, the peak currents were elicited by rapid application of 30 μM 5-HT with 0, 0.2, 0.5, 1, 2, 5, and 10 s delay to observe its recovery.

T1 sequence (P31645 whole entry): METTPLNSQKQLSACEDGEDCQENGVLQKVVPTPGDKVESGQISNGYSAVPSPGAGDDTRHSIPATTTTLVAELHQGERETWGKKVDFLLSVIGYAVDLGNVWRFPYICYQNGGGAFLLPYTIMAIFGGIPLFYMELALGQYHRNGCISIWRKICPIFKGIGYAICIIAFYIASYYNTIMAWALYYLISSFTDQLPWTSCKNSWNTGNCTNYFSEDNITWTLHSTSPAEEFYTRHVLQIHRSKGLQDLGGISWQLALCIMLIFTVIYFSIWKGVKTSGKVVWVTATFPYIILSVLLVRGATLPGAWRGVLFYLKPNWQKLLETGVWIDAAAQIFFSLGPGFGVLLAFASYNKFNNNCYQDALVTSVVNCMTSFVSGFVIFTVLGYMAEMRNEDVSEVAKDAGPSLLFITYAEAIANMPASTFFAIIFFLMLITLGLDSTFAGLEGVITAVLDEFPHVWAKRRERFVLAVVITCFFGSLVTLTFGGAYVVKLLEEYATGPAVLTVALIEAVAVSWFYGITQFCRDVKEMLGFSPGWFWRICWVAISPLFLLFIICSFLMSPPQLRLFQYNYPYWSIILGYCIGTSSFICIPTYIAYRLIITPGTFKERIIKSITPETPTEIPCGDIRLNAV

In the case of `COC(=O)C(c1ccccc1)C1CCCCN1` (stereo not drawn) [methylphenidate], the “competition curve versus [^3H]imipramine” value (SERT [1]) is reported as “shift to the left”, the apparent on-rate kapp (SERT [2]; 10 μM methylphenidate, absence of 15B8 Fab) is reported as 0.36 ± 0.12 s⁻¹ and the apparent on-rate kapp (SERT [2]; 10 μM methylphenidate, presence of 300 nM 15B8 Fab) is reported as 1.20 ± 0.42 s⁻¹. The apparent on-rate kapp (SERT [2]; 30 μM methylphenidate, absence of 15B8 Fab) was 0.87 ± 0.20 s⁻¹, the apparent on-rate kapp (SERT [2]; 30 μM methylphenidate, presence of 300 nM 15B8 Fab) was 1.29 ± 0.27 s⁻¹ and the apparent on-rate kapp (SERT [2]; 100 μM methylphenidate, absence of 15B8 Fab) was 1.53 ± 0.40 s⁻¹. The apparent on-rate kapp (SERT [2]; 100 μM methylphenidate, presence of 300 nM 15B8 Fab) was 2.72 ± 0.45 s⁻¹, the apparent on-rate kapp (SERT [2]; 300 μM methylphenidate, absence of 15B8 Fab) was 3.46 ± 0.51 s⁻¹ and the apparent on-rate kapp (SERT [2]; 300 μM methylphenidate, presence of 300 nM 15B8 Fab) was 6.54 ± 1.04 s⁻¹. For the same molecule, the koff (SERT [2]; absence of 15B8 Fab) was 0.89 ± 0.14 s⁻¹, the “association rate constant kon for binding to SERT” value (SERT [2]; absence of 15B8 Fab) was 8.55 ± 1.03 × 10^3 M^−1 s^−1 and the kon (SERT [2]; absence of 15B8 Fab) was 8950 ± 1.03e+06 M⁻¹ s⁻¹. For the same molecule, the koff (SERT [2]; presence of 15B8 Fab (300 nM)) was 0.8 ± 0.12 s⁻¹, the “association rate constant kon for binding to SERT” value (SERT [2]; presence of 15B8 Fab (300 nM)) was 1.92 ± 0.06 × 10^4 M^−1 s^−1 and the kon (SERT [2]; presence of 15B8 Fab (300 nM)) was 19600 ± 6e+06 M⁻¹ s⁻¹.
